According to US12655116B2, “Substituted isophthalic acid diamides” (Bayer Aktiengesellschaft, priority 2020, dated 2026):

What was measured:
VIOTR [1] = test: Pre-emergence herbicidal action against VIOTR; type: in vivo, Viola tricolor
How it was run: (§1)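 Greenhouse pots of sandy loam held seeds covered with soil, onto which the compound was applied before emergence. An aqueous suspension or emulsion of WP or EC was used at 600 to 800 l/ha with 0.2% wetting agent. Percent damage was judged visually at 3 weeks.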

MATIN [2] = test: Pre-emergence herbicidal action against MATIN; type: in vivo, Matricaria inodora
How it was run: as §1

STEME [3] = test: Pre-emergence herbicidal action against STEME; type: in vivo, Stellaria media
How it was run: as §1

AMARE [4] = test: Pre-emergence herbicidal action against AMARE; type: in vivo, Amaranthus retroflexus
How it was run: as §1

VIOTR [5] = test: Post-emergence herbicidal action against VIOTR; type: in vivo, Viola tricolor
How it was run: (§2)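 A WP or EC formulation diluted in water with 0.2% wetting agent was sprayed at 600 to 800 l/ha onto one-leaf-stage plants grown in sandy loam. About 3 weeks later, action was rated visually in percent, 100% being dead plants.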

DIGSA [6] = test: Pre-emergence herbicidal action against DIGSA; type: in vivo, Digitaria sanguinalis
How it was run: as §1

ABUTH [7] = test: Post-emergence herbicidal action against ABUTH; type: in vivo, Abutilon theophrasti; conditions: visual assessment about 3 weeks after treatment vs untreated controls
How it was run: as §2

MATIN [8] = test: Post-emergence herbicidal action against MATIN; type: in vivo, Matricaria inodora
How it was run: as §2

PHBPU [9] = test: Post-emergence herbicidal action against PHBPU; type: in vivo, Pharbitis purpurea
How it was run: as §2

POLCO = test: Pre-emergence herbicidal action against POLCO; type: in vivo, Polygonum convolvulus; conditions: dosage 80 g/ha
How it was run: as §1

ECHCG [10] = test: Pre-emergence herbicidal action against ECHCG; type: in vivo, Echinochloa crus-galli; conditions: 80 g/ha
How it was run: as §1

ALOMY = test: Pre-emergence herbicidal action against ALOMY; type: in vivo, Alopecurus myosuroides; conditions: 80 g/ha, pre-emergence, scored visually after 3 weeks vs untreated controls (100% = plants have died, 0% = like control plants)
How it was run: as §1

SETVI [11] = test: Pre-emergence herbicidal action against SETVI; type: in vivo, Setaria viridis; conditions: dosage 80 g/ha
How it was run: as §1

AVEFA [12] = test: Pre-emergence herbicidal action against AVEFA; type: in vivo, Avena fatua; conditions: 80 g/ha, pre-emergence
How it was run: as §1

AMARE [13] = test: Post-emergence herbicidal action against AMARE; type: in vivo, Amaranthus retroflexus; conditions: 20 g/ha, visual assessment about 3 weeks after treatment, 100% = plants have died, 0% = like control plants
How it was run: as §2

AVEFA [14] = test: Post-emergence herbicidal action against AVEFA; type: in vivo, Avena fatua; conditions: 20 g/ha, visual assessment about 3 weeks after treatment, 100% = plants have died, 0% = like control plants
How it was run: as §2

STEME [15] = test: Post-emergence herbicidal action against STEME; type: in vivo, Stellaria media
Description: Seeds of monocotyledonous and dicotyledonous weed and crop plants are laid out in sandy loam soil in wood-fiber pots, covered with soil and cultivated in a greenhouse under good growth conditions. 2 to 3 weeks after sowing, the test plants are treated at the one-leaf stage. The compounds of the invention, formulated in the form of wettable powders (WP) or as emulsion concentrates (EC), are then sprayed onto the green parts of the plants in the form of an aqueous suspension or emulsion at a water application rate equivalent to 600 to 800 l/ha, with addition of 0.2% wetting agent. After the test plants have been left to stand in the greenhouse under optimal growth conditions for about 3 weeks, the action of the preparations is assessed visually in comparison to untreated controls (herbicidal action in percent (%): 100% activity=the plants have died, 0% activity=like control plants). […] The tables below illustrate, in an illustrative manner, the post-emergence herbicidal action of the compounds of the invention, the herbicidal activity being stated in percent.

ABUTH [16] = test: Pre-emergence herbicidal action against ABUTH; type: in vivo, Abutilon theophrasti; conditions: for Pre-emergence action against ABUTH (herbicidal activity): 80 g/ha, scored visually after 3 weeks vs untreated controls (100% = plants have died, 0% = like control plants); for Pre-emergence action against ABUTH (herbicidal activity in percent): dosage 20 g/ha, scored visually after 3 weeks vs untreated controls, 100% = plants have died, 0% = like control plants
How it was run: as §1

ECHCG [17] = test: Post-emergence herbicidal action against ECHCG; type: in vivo, Echinochloa crus-galli
How it was run: as §2

DIGSA [18] = test: Post-emergence herbicidal action against DIGSA; type: in vivo, Digitaria sanguinalis
How it was run: as §2

PHBPU [19] = test: Pre-emergence herbicidal action against PHBPU; type: in vivo, Pharbitis purpurea; conditions: dosage 80 g/ha
How it was run: as §1

SETVI [20] = test: Post-emergence herbicidal action against SETVI; type: in vivo, Setaria viridis; conditions: dosage 20 g/ha
How it was run: as §2

VERPE [21] = test: Pre-emergence herbicidal action against VERPE; type: in vivo, Veronica persica; conditions: dosage 80 g/ha
How it was run: as §1

VERPE [22] = test: Post-emergence herbicidal action against VERPE; type: in vivo, Veronica persica; conditions: 20 g/ha
How it was run: as §2

[23] = 20 g/ha, scored visually after 3 weeks vs untreated controls, 100% = plants have died, 0% = like control plants
[24] = 80 g/ha, scored visually after 3 weeks vs untreated controls (100% = plants have died, 0% = like control plants)

Row | SMILES | Pre-emergence action against VIOTR in % (VIOTR [1]; dosage 80 g/ha) | Pre-emergence action against MATIN in % (MATIN [2]; dosage 20 g/ha) | Pre-emergence action against MATIN in % (MATIN [2]; dosage 80 g/ha) | Pre-emergence action against STEME in % (STEME [3]; dosage 20 g/ha) | Pre-emergence action against STEME in % (STEME [3]; dosage 80 g/ha) | Pre-emergence action against AMARE in % (AMARE [4]; [23]) | Pre-emergence action against AMARE in % (AMARE [4]; [24]) | Pre-emergence action against DIGSA in % (DIGSA [6]; dosage 80 g/ha) | Post-emergence action against ABUTH in % (ABUTH [7]; dosage 5 g/ha) | Post-emergence action against ABUTH in % (ABUTH [7]; dosage 20 g/ha) | Post-emergence action against MATIN in % (MATIN [8]; dosage 5 g/ha) | Post-emergence action against MATIN in % (MATIN [8]; dosage 20 g/ha) | Post-emergence action against PHBPU in % (PHBPU [9]; dosage 20 g/ha) | Pre-emergence action against ECHCG in % (ECHCG [10]) | Pre-emergence action against SETVI in % (SETVI [11]) | Pre-emergence action against AVEFA in % (AVEFA [12]) | Post-emergence action at 20 g/ha against AVEFA in % (AVEFA [14]) | Post-emergence action against STEME in % (STEME [15]; 20 g/ha) | Post-emergence action against STEME in % (STEME [15]; dosage 5 g/ha) | Pre-emergence action against ABUTH (herbicidal activity) (ABUTH [16]) | other results
1 | CCCn1nnnc1NC(=O)c1ccc(C(F)(F)F)c(C(=O)NCC)c1Br [Example 3-208] | 100% | 100% | 100% | 90% | 100% | 100% | 100% | 80% | 90% | 90% | 90% | 90% | 90% | 80% | 100% | 100% | 80% | 90% | 80% | 100% | Post-emergence action against VIOTR in % (VIOTR [5]; 5 g/ha): 100%; Post-emergence action against VIOTR in % (VIOTR [5]; 20 g/ha): 100%; Post-emergence action against PHBPU in % (PHBPU [9]; dosage 5 g/ha): 80%; Pre-emergence action against POLCO in % (POLCO): 80%; Pre-emergence action against ALOMY (herbicidal activity) (ALOMY): 90%; Post-emergence action at 20 g/ha against AMARE in % (AMARE [13]): 90%; Pre-emergence action against ABUTH (herbicidal activity in percent) (ABUTH [16]): 100%
2 | CCCn1nnnc1NC(=O)c1ccc(C(F)(F)F)c(C(=O)NC2CC2)c1CC [Example 3-273] | 100% | 90% | 100% | 90% | 100% | 100% | 100% | 100% | 80% | 90% | 80% | 90% | 80% | 80% | 100% | 90% | 80% | 90% | 80% | 100% | Post-emergence action against ECHCG in % (ECHCG [17]; dosage 5 g/ha): 80%; Post-emergence action against ECHCG in % (ECHCG [17]; dosage 20 g/ha): 80%; Pre-emergence action against VIOTR in % (VIOTR [1]; dosage 20 g/ha): 100%; Pre-emergence action against DIGSA in % (DIGSA [6]; dosage 20 g/ha): 90%; Post-emergence action against DIGSA in % (DIGSA [18]; 5 g/ha): 80%; Post-emergence action against DIGSA (DIGSA [18]; 20 g/ha): 90%; Pre-emergence action against PHBPU in % (PHBPU [19]): 90%; Post-emergence action against SETVI in % (SETVI [20]): 80%; Pre-emergence action against VERPE in % (VERPE [21]): 100%; Post-emergence action against VERPE in % (VERPE [22]): 80%; Pre-emergence action against ABUTH (herbicidal activity in percent) (ABUTH [16]): 90%
